Measured values as given in PMC9378673 (Nature Communications, 2022).
Where “and” joins values, the source holds several entries; their conditions need not be identical. Identical values can stand only once. Counter-ions that a name gives are not always drawn. Like-named read-outs stand apart in the source and are kept apart here.

Legend:
IDH1 S280F = target: T1, IDH1 S280F (Homo sapiens, UniProt O75874, S280F); assay: Steady-state kinetics, spectrophotometric NADPH absorption assay; format: biochemical
T1 construct: made in house; host or cells: E. coli BL21(DE3)plysS
Protocol: (§1) This assay was used to study steady-state kinetics and inhibition of reactions catalysed by IDH1 variants. The assay buffer was 100 mM Tris, 10 mM MgCl2, 0.2 mM dithiothreitol (DTT), 0.005%(v/v) Tween 20, and 0.1 mg mL^−1 bovine serum albumin (BSA) (pH 8.0). For inhibition assays, IDH1 variants were incubated with an inhibitor for 12 min before the reaction was initiated by substrate addition. The standard error was derived from curve fitting using GraphPad Prism v9. See figure legends for details on specific kinetic assays (Figs. 1–3; Supplementary Fig. 5; Supplementary Table 1). […]
(§2) spectrophotometric NADPH absorption assay. Conditions: 100 mM Tris, 10 mM MgCl2, 0.2 mM DTT, 0.005 %(v/v) Tween 20, and 0.1 mg/mL bovine serum albumin (BSA), pH 8.0. […] (a) Michaelis Menten […]
(§3) parameters for the oxidative decarboxylation of isocitrate. Errors: standard error of the mean (n = 3). (b) Michaelis Menten parameters for the reduction of 2-OG to 2-HG. Errors: standard error of the mean (n = 3).

IDH1 wt = target: T2, IDH1 wt (Homo sapiens, UniProt O75874); assay: as above; format: biochemical
T2 construct: made in house; host or cells: E. coli BL21(DE3)plysS
Protocol: as §1, §2, §3

[1] = test system: LN18 cells containing an empty vector (control, no IDH1); assay: 2-HG levels in cells by anion-exchange chromatography-MS; format: cell-based, human; design: unit not given here
[2] = oxidative decarboxylation of isocitrate; 1 nM enzyme; read-out: KM IDH1 S280F
[3] = oxidative decarboxylation of isocitrate; 1 nM enzyme; varied substrate = label
[4] = oxidative decarboxylation of isocitrate; 1 nM enzyme; read-out: KM IDH1 wt
[5] = reduction of 2-OG to 2-HG; […] enzyme; read-out: KM IDH1 S280F
[6] = 5 µM inhibitor, 24 h, replicates

T1 sequence (O75874 whole entry S280F): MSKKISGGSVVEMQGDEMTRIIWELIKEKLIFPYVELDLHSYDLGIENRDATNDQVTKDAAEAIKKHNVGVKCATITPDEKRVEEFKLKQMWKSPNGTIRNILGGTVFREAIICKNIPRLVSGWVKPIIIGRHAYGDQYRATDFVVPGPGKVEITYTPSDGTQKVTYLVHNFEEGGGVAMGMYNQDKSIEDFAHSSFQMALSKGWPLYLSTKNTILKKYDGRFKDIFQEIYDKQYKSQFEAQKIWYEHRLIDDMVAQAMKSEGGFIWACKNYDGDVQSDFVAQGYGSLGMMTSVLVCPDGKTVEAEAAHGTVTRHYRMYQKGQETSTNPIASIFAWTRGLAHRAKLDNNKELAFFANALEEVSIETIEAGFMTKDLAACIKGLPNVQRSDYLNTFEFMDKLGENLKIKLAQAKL
T2 sequence (O75874 whole entry): as the sequence (O75874 whole entry S280F) above, with F280S counted along it

In the case of NC(=O)c1ccc[n+]([C@@H]2O[C@H](COP(=O)([O-])OP(=O)(O)OC[C@H]3O[C@@H](n4cnc5c(N)ncnc54)[C@H](OP(=O)(O)O)[C@@H]3O)[C@@H](O)[C@H]2O)c1 [NADP+], the Km (IDH1 S280F; [2]) is reported as 7.4 ± 0.7 µM, the “kcat IDH1 S280F” value (IDH1 S280F; [3]) is reported as 31.3 ± 0.6 s⁻¹ and the Km (IDH1 wt; [4]) is reported as 10.1 ± 0.7 µM. The “kcat IDH1 wt” value (IDH1 wt; [3]) was 43.2 ± 0.7 s⁻¹.
NC(=O)C1=CN([C@@H]2O[C@H](COP(=O)(O)OP(=O)(O)OC[C@H]3O[C@@H](n4cnc5c(N)ncnc54)[C@H](OP(=O)(O)O)[C@@H]3O)[C@@H](O)[C@H]2O)C=CC1 [NADPH] was tested, and the Km (IDH1 S280F; [5]) was 3 ± 0.3 µM and the Km (IDH1 wt; reduction of 2-OG to 2-HG; […] enzyme; read-out: KM IDH1 wt) was 7 ± 2 µM.
With COc1c(C)cc(NC(=O)c2nn(Cc3ccc(F)cc3)c3c2CN(C(=O)c2ccc[nH]2)C[C@]3(C)C(N)=O)cc1C [GSK864] the “2-HG levels, control (empty vector) LN18 cells” value (shortened to “2-HG levels, control”) [1, 6] was 43585.6 and 50898.8 and 60357.4 and 48169.7.
With N#Cc1ccnc(N2C(=O)CC[C@H]2C(=O)N(c2cncc(F)c2)[C@H](C(=O)NC2CC(F)(F)C2)c2ccccc2Cl)c1 [ivosidenib] the “2-HG levels, control” value ([1]; 5 µM inhibitor, 24 h, replicates, listed as AG120) was 57883 and 75917.7 and 85802.8 and 47477.2.
In the case of [Cl-].[Cl-].[Mg+2] [MgCl2], the Km (IDH1 S280F; [2]) is reported as 24 ± 3 µM, the “kcat IDH1 S280F” value (IDH1 S280F; [3]) is reported as 33 ± 1 s⁻¹ and the “Decrease of KM for IDH1 S280F compared to IDH1 wt” value (IDH1 S280F; reduction of 2-OG to 2-HG) is reported as 100 fold. The Km (IDH1 S280F; [5]) was 15 ± 4 µM, the Km (IDH1 wt; [4]) was 18 ± 2 µM and the “kcat IDH1 wt” value (IDH1 wt; [3]) was 37 ± 1 s⁻¹.
In the case of Cc1cn(C(=O)c2c(-c3c(Cl)cc(Cl)cc3Cl)noc2C(C)(C)F)c2cccc(/C=C/C(=O)O)c12 [DS-1001B], the “2-HG levels, control” value [1, 6] is reported as 51141.4 and 46980.7 and 53466.4 and 38288.1.
For CC(Nc1nccc(N2C(=O)OCC2C(C)C)n1)c1ccc(CN2CCC(F)(F)CC2)cc1 (stereo not drawn) [IDH224], the “2-HG levels, control” value [1] was 89318.1 and 81458.8 and 60558.2 and 69273.4.
With O=C(O)CCC(=O)C(=O)O [2-OG, 2-oxoglutarate] the Km (IDH1 S280F; read-out: KM IDH1 S280F; reduction of 2-OG to 2-HG; […] enzyme) was 123 ± 4 µM and the Km (IDH1 wt; read-out: KM IDH1 wt; reduction of 2-OG to 2-HG; […] enzyme) was 792 ± 103 µM.
With C[C@H](Nc1ccc(C#N)n(C)c1=O)c1cc2cc(Cl)ccc2[nH]c1=O [FT-2102] the “2-HG levels, control” value [1, 6] was 52804.5 and 64927 and 75933.5 and 34018.1.
O=C(O)CC(C(=O)O)C(O)C(=O)O (racemic) [DL-Isocitrate, DL-isocitric acid trisodium salt] was tested, and the Km (IDH1 S280F; [2]) was 12 ± 1 µM and the Km (IDH1 wt; [4]) was 31 ± 3 µM.
